Measurements reported in article PMC5618792, “Dynamic multicolor protein labeling in living cells” (Chemical Science, 2017).

Columns and labels:
[1] = biological target: T1, FAST (Halorhodospira halophila, UniProt P16113, C69G/D97P/F96I/M100R/Q99S/T101G/T95M/Y94W/Y98T); assay: Spectroscopic properties of FAST:fluorogen complexes in PBS pH 7.4 (absorption, emission, quantum yield); format: physicochemical; conditions: for Brightness = ε × φ / ε, molar absorption coefficient at λ abs / φ, fluorescence quantum yield / λ abs, wavelength of maximal absorption / λ em, wavelength of maximal emission / F bound/F unbound, fluorescence activation upon FAST binding / Δλ abs = λ abs,bound – λ abs,unbound, absorption red-shift upon FAST binding: PBS pH 7.4
T1 construct: His-tag; made in house; host or cells: Rosetta(DE3)pLysS E. coli
T1 sequence (P16113 whole entry C69G/Y94W/T95M/F96I/D97P/Y98T/Q99S/M100R/T101G): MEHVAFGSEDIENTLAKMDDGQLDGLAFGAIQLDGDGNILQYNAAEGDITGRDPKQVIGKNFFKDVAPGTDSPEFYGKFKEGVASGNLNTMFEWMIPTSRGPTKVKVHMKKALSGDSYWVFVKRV
Method: (§1) The UV/Vis absorption spectra were recorded with 1 cm × 1 cm quartz cuvettes (Hellma) on a diode array UV/Vis spectrophotometer (Evolution array, Thermo Scientific). The corrected fluorescence spectra upon one-photon excitation were recorded with a Photon Technology International QuantaMaster QM-1 spectrofluorimeter (PTI, Monmouth Junction, NJ) equipped with a Peltier cell holder (TLC50, Quantum Northwest, Shoreline, WA). The overall emission quantum yields after one-photon excitation φ were determined as previously described.[14]

[2] = Physico-chemical properties of free fluorogens in aqueous solutions; format: physicochemical; conditions: free fluorogen; for pKa: aqueous solution, read-out: pKA, acidity constant
Method: as §1, with “pH measurements were performed on a standard pH meter PHM210 Radiometer Analytical (calibrated with aqueous buffers at pH 4 and 7 or 10) with a Crison 5208 Electrode (Barcelona, Spain). The UV/Vis” for “The UV/Vis”
HBR-3,5DOM in aqueous solutions. Abbreviations are as follows : pKA, acidity constant ;
λabs,neutral, wavelength of maximal absorption of the protonated state; λabs,anionic, wavelength of
maximal absorption of the anionic state.
Fluorogen pKA λabs,neutral (nm) λabs,anionic (nm)

[3] = biological target: T1, FAST; assay: Affinity constants by spectrofluorometric titration of FAST with fluorogen; format: binding
Method: as §1

[4] = system: HeLa cells; assay: LIVE/DEAD viability/cytotoxicity assay; format: cell-based; conditions: 5 µM, 24 h, calceinAM and EthD1
Method: The HeLa cells were treated with DMEM media containing the fluorogens at the indicated concentrations for the indicated times. The cell viability was evaluated by fluorescence microscopy using the LIVE/DEAD® viability/cytotoxicity assay kit (Molecular Probes, Life Technologies) following the manufacturer’s protocol.
Figure S2. Viability assay of HeLa cells incubated for 24 h with solutions of HBR-3,5DM, HBR-3OM and HBR-3,5DOM at 5 µM. Cell viability was tested by using calceinAM and EthD1 (LIVE/DEAD® viability/cytotoxicity assay kit). CalceinAM is a cell-permeant profluorophore cleaved by intracellular esterases releasing the green fluorescent polyanionic calcein in live cells. EthD1 (Ethidium homodimer 1) is a non cell-permeant nucleic acid red fluorescent stain that enters only cells with damaged membranes and undergoes a fluorescence enhancement upon binding to nucleic acids, thereby producing a bright red fluorescence in dead cells. Control experiments with HeLa cells non-incubated with dye (A) or incubated for 30 min with 1% hydrogen peroxyde (B) are shown. Cell fluorescence was evaluated by confocal microscopy.
3OM and HBR-3,5DOM are non-toxic for HeLa cells at the concentrations used for imaging.
(1 picture or pasted object on this page, not shown here)

[5] = FAST:fluorogen complex, listed as FAST:HBR-2,5DM
[6] = FAST:fluorogen complex, listed as FAST:HBR-3OE
[7] = FAST:fluorogen complex, listed as FAST:HBR-3,5DM
[8] = FAST:fluorogen complex, listed as FAST:HBR-3OM

| SMILES | red-shifted absorption relative to FAST:HMBR ([1]; FAST:fluorogen complex) | red-shifted emission relative to FAST:HMBR ([1]; FAST:fluorogen complex) | Brightness = ε × φ ([1]; FAST:fluorogen complex) | ε, molar absorption coefficient at λ abs ([1]; FAST:fluorogen complex) [mM^–1 cm^–1] | φ, fluorescence quantum yield ([1]; FAST:fluorogen complex) [%] | F bound/F unbound, fluorescence activation upon FAST binding [1] | Δλ abs = λ abs,bound – λ abs,unbound, absorption red-shift upon FAST binding [1] [nm] | pKa [2] | λabs,anionic, wavelength of maximal absorption of the anionic state [2] [nm] | λabs,neutral, wavelength of maximal absorption of the protonated state [2] [nm] | Kd [3] [nM] | toxicity for HeLa cells (cell viability) [4] | other results |
| --- | --- | --- | --- | --- | --- | --- | --- | --- | --- | --- | --- | --- | --- |
| Cc1cc(/C=C2\SC(=S)NC2=O)c(C)cc1O [HBR-2,5DM, (Z)-5-(4-Hydroxy-2,5-dimethylbenzylidene)-2-thioxo-1,3-thiazolidin-4-one] | 15–20 nm | 10–20 nm | 14 500 | 50 | 29 | 430 | 88 | 8.7 | 472 | 406 | 8 |  | λ abs, wavelength of maximal absorption [1, 5]: 494 nm; λ em, wavelength of maximal emission [1, 5]: 552 nm |
| CCOc1cc(/C=C2\SC(=S)NC2=O)ccc1O [HBR-3OE, (Z)-5-(3-Ethoxy-4-hydroxybenzylidene)-2-thioxothiazolidin-4-one] | 15–20 nm | 10–20 nm | 7000 | 41 | 17 | 230 | 94 |  |  |  | 270 |  | λ abs, wavelength of maximal absorption [1, 6]: 497 nm; λ em, wavelength of maximal emission [1, 6]: 562 nm |
| Cc1cc(/C=C2\SC(=S)NC2=O)cc(C)c1O [HBR-3,5DM, (Z)-5-(4-Hydroxy-3,5-dimethylbenzylidene)-2-thioxothiazolidin-4-one] | 15–20 nm | 10–20 nm | 23 500 | 48 | 49 | 660 | 98 | 8.7 | 473 | 401 | 80 | non-toxic | λ abs, wavelength of maximal absorption [1, 7]: 499 nm; λ em, wavelength of maximal emission [1, 7]: 562 nm; overall brightness relative to the original FAST:HMBR complex ([1]; higher than FAST:HMBR): 2.5 fold |
| COc1cc(/C=C2\SC(=S)NC2=O)cc(OC)c1O [HBR-3,5DOM, (Z)-5-(4-Hydroxy-3,5-dimethoxybenzylidene)-2-thioxothiazolidin-4-one] | 40 nm | 60 nm | 12 000 | 39 | 31 | 220 | 112 | 8.3 | 484 | 407 |  | non-toxic | Stokes shift ([1]; FAST:fluorogen complex): 82 nm; λ em, wavelength of maximal emission ([1]; FAST:fluorogen complex): 600 nm |
| COc1cc(/C=C2\SC(=S)NC2=O)ccc1O [HBR-3OM, (Z)-5-(4-Hydroxy-3-methoxybenzylidene)-2-thioxo-1,3-thiazolidin-4-one] | 15–20 nm | 10–20 nm | 14 400 | 40 | 36 | 350 | 91 | 8.3 | 468 | 403 | 310 | non-toxic | λ abs, wavelength of maximal absorption [1, 8]: 494 nm; λ em, wavelength of maximal emission [1, 8]: 561 nm |
| CCc1cc(/C=C2\SC(=S)NC2=O)ccc1O [HBR-3E, (Z)-5-(3-Ethyl-4-hydroxybenzylidene)-2-thioxothiazolidin-4-one] |  |  | 6500 | 50 | 13 | 300 | 81 |  |  |  | 80 |  | λ abs, wavelength of maximal absorption ([1]; FAST:fluorogen complex): 481 nm; λ em, wavelength of maximal emission ([1]; FAST:fluorogen complex): 543 nm |
| Cc1cc(C=C2SC(=S)NC2=O)ccc1O [HMBR, 4-hydroxy-3-methylbenzylidene rhodanine, reference compound] |  |  | 10 300 | 45 |  | 300 |  | 8.7 | 461 | 401 |  |  |  |
